Common to all, as to assay: NCI tumour cell line growth inhibition, 48 h
Test [1] has as its system COLO 205 colon.
Test [2] concerns HCT-116 colon.
Test [3] has as its system HL-60(TB) leukemia.
Test [4] relates to HT29 colon.
Test [5] concerns NCI-H460 lung.
Test [6] concerns OVCAR-3 ovarian.
Test [7] relates to SF-268 CNS.
Test [8] concerns SF-295 CNS.
For test [9], the system named is SNB-19 CNS.
In test [10] the test system is LOX IMVI melanoma.

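Cells were grown in 96-well plates and exposed to each compound for 48 hours at five concentrations; endpoints were interpolated linearly between bracketing concentrations, or set to the highest concentration if not reached. GI50: concentration for 50% inhibition of growth. At the TGI there is no net growth.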

Consider `Nc1c2c(c(O)c3c1=C(CO)C=N3)=NCCS2`, for which the GI50 is 39.7 nM in test [1]; 223 nM in test [2]; 222 nM in test [3]; 79.4 nM in [4]; 38.9 nM in test [5]; 164 nM in [6]. Further, the GI50 is 291 nM in [7], 177 nM in test [8] and 147 nM in test [9]. The TGI in [1] was found to be 0.146 µM; in [2] it was 524 nM; in test [3], 0.512 µM; in test [4], 0.37 µM; in [5] it was 0.154 µM; in test [6], 0.35 µM. Besides, the TGI in test [7] was 1.05 µM; in test [8], 0.33 µM; in test [9], 0.284 µM.
As for `CCOc1ccc(N=Cc2ccc3cc(C)ccc3n2)cc1`, the TGI was above 100 µM in test [1]; 48 µM in test [3]; above 100 µM in test [4]; above 100 µM in test [10]; above 100 µM in [5]; above 100 µM in [6]. Further, the TGI in test [7], in [8] and in test [9] was above 100 µM each time.
With `O=S(=O)(NCCCNc1nccc(-c2c(-c3ccc(F)c(O)c3)nc3sccn23)n1)c1ccc(F)cc1`, the GI50 in test [1] is 1480 nM; in [3], 1860 nM; in test [4] it was 2940 nM; in test [10], 578 nM; in [5], 2370 nM; in test [8], 2190 nM. In test [9], the GI50 was 3330 nM. Also, the TGI in test [1] worked out at 9.67 µM; in [3] it was 5.26 µM; in test [4] it was 37.8 µM; in [10], 5.53 µM; in [5], 6.35 µM; in test [8], 5.27 µM. The same molecule showed a TGI in [9] above 100 µM.
As for `CC(=O)CC(N)=O`, the TGI in test [1] is above 100 µM; in test [2] it was above 100000 nM; in test [3], above 100 µM; in test [4] it was above 100 µM; in test [5], above 100 µM; in test [6], above 100 µM. In addition, the TGI in test [7], in [8] and in test [9] was above 100 µM throughout.
On to `O=C(O)Cc1cc(=O)[nH]c2c1/C(=N/O)CCC2`, for which the TGI in test [3], in [4], in test [5], in test [6], in [7] and in test [8] was above 100 µM each time. The same molecule showed a TGI in test [9] above 100 µM.
For `CCC(=O)Nc1ccccc1C#C/C=C\C#Cc1ccccc1SC`, the GI50 in test [1] is 9840 nM; in [2], 5610 nM; in [3], 1460 nM; in test [4] it was 5200 nM; in [10], 5470 nM; in [5] it was 3400 nM. The values for the GI50 in test [6], in test [7] and in [9] were 8870 nM, 12300 nM and 43800 nM, respectively. Also, the TGI in test [1] is above 100 µM; in test [2] it was above 100000 nM; in test [3] it was above 100 µM; in [4], above 100 µM; in test [10], above 100 µM; in test [5], above 100 µM. The TGI in test [6] was 80.6 µM; in test [7], above 100 µM; in test [9], above 100 µM.
As for `COc1ccc2c3c([nH]c2c1[N+](=O)[O-])C(C)N(Cc1ccc([N+](=O)[O-])cc1)CC3` (stereo not drawn), the TGI was found to be 35.8 µM in test [1]; 17.9 µM in test [3]; 35.3 µM in [4]; 26.8 µM in [10]; 34.7 µM in test [5]; 64.7 µM in [6]. Further, the TGI in test [7] was 9.22 µM; in [8], 43 µM; in test [9] it was above 100 µM.
As for `CC(=Nc1ccccc1)C1=C(O)C(Cc2ccc(O)cc2)NC1=O` (stereo not drawn), the GI50 was 76 nM in [1]; 50.3 nM in [2]; 37.6 nM in test [3]; 47.2 nM in test [4]; 152 nM in [10]; 79.4 nM in test [5]. Moreover, the GI50 in test [6] is 25.8 nM; in [7], 117 nM; in [9], 230 nM. In addition, the TGI is 0.28 µM in test [1]; 1930 nM in test [2]; 0.176 µM in test [3]; 0.452 µM in [4]; above 23.1 µM in test [10]; 1.08 µM in [5]. Further, the values for the TGI in test [6], in test [7] and in test [9] were 0.072 µM, above 80.2 µM and above 100 µM, respectively.
On to `O=C1O/C(=C\c2ccccc2)N(c2ccccc2)C1=O`, for which the TGI in test [1] is above 100 µM; in [2] it was above 100000 nM; in [3] it was above 100 µM; in test [4] it was above 100 µM; in test [10], above 100 µM; in test [5], above 100 µM. Moreover, the TGI in test [6], in test [7] and in [9] was above 100 µM throughout.
As to `CN(C)CCNC(=O)c1cccc2nc3cc(Cl)ccc3nc12`, the TGI in [2] is 2230 nM; in test [3], 13.9 µM; in [4], 6.22 µM; in [10], 2.86 µM; in test [6], 6.15 µM; in test [8], above 27.8 µM. In [9], this molecule registered a TGI of 16.9 µM.
As for `Cn1nc(-c2ccccc2)c(C(=O)/C=C/c2ccc(Cl)cc2)c(N2CCCCC2)c1=O`, the TGI in test [1] came out at 4.35 µM; in test [2] it was 3470 nM; in test [3], 4 µM; in [4], 6.9 µM; in test [10], 6.09 µM; in [5], 7.4 µM. Also, the TGI was determined as 2.14 µM in test [8] and 4.72 µM in test [9].
For the molecule `CC(=O)OC1CCn2nnc(CO)c21` (stereo not drawn), the TGI was above 100 µM in test [1]; above 100000 nM in test [2]; above 100 µM in test [4]; above 100 µM in test [5]; above 100 µM in [6]; above 100 µM in [8]. Further, in test [9], the TGI was above 100 µM.

The record behind these values is PubChem BioAssay (NCI).
